Laboratory results published in patent US9090701B2, “Methods of detecting oxidized calcium/calmodulin dependent protein kinase II” (University of Iowa Research Foundation, priority 2008, dated 2015).

What was measured:
CaMKIIδ [1] = molecular target: T1, CaMKIIδ (Mus musculus, UniProt Q6PHZ2, T287A); assay type: biochemical; details: in the presence of ATP
T1 construct: CaMKIIδ (GenBank #NP_001020609) was generated using the Bac-to-Bac baculovirus system; made in house; host or cells: Bac-to-Bac baculovirus system (Invitrogen)
Experimental: (§1) Mutant CaMKII cDNAs were generated using a QuikChange site-directed mutagenesis kit (Stratagene). CaMKIIδ (GenBank #NP_001020609) was generated using the Bac-to-Bac baculovirus system (Invitrogen) and purified on a calmodulin-agarose column. For CaMKII activity assays, purified CaMKII was pretreated with 200 μM CaCl2 and 1 μM CaM on ice for 1 minute. The protein was then exposed to ATP, H2O2, or water at the described concentrations for 10 minutes. Samples exposed to ATP or H2O2 were then treated with 10 mM EGTA for 10 minutes. CaMKII activity was measured as a function of ^32P-ATP incorporation into a synthetic substrate (syntide-2) at 30° C., as previously described (Wu e.g., 2002).
(§2) CaMKII is activated by Ca^2+/CaM, but autophosphorylation at T287 sustains catalytic activity after dissociation of Ca^2+/CaM (FIG. 1A) because the negatively charged phosphate prevents reassociation of the catalytic domain and autoinhibitory region (Hudmon and Schulman, 2002). CaMKII activity may also be enhanced by pro-oxidant conditions (Zhu e.g., 2007); it therefore was hypothesized that oxidation of the regulatory domain in the vicinity of T287 could sustain CaMKII catalytic activity by an analogous mechanism.
(§3) These mutants were exposed to H2O2 and assayed for activity in the presence of EGTA (FIG. 1C). […] While the paired methionine motif is conserved in the β, γ, and δ isoforms of CaMKII, the neuronal α isoform substitutes a cysteine residue for the first methionine of the pair (position 280 in CaMKIIα). The side chain of cysteine is also susceptible to oxidation. A M281C mutant of CaMKIIδ was generated to mimic the substitution in CaMKIIα. Additionally, CaMKIIα was generated and purified. […] To further elucidate the role of M281 and M282 in ROS-dependent activation, these sites were individually mutated. […]

CaMKIIδ [2] = assay type: biochemical; details: for H2O2 (oxidation/ROS)-dependent activation of CaMKII mutant: exposed to H2O2, assayed in the presence of EGTA
Experimental: as §1, §2, §3

CaMKIIδ [3] = molecular target: T2, CaMKIIδ (Mus musculus, UniProt Q6PHZ2); assay type: biochemical
Experimental: as §1, §2, §3

CaMKIIδ [4] = molecular target: T2, CaMKIIδ; details: after Ca2+/CaM binding
Experimental: It seemed possible that conditions capable of oxidizing methionine residues would also oxidize unprotected cysteine residues. […] In order to comprehensively test the potential role of all accessible cysteines in contributing to oxidation-dependent CaMKII activity, CaMKII activity responses to H2O2 in the presence of iodoacetic acid were measured. Iodoacetic acid is a reagent that blocks oxidation of unprotected cysteine residues (Zangerle e.g., 1992).

rat CaMKIIδ = assay: CaMKIIδ shRNA knockdown and rescue in cultured neonatal cardiomyocytes; assay type: cell-based; details: shRNA-treated cells; for Rescue of apoptotic response to AngII: 24 hours
Experimental: (§4) Myocyte isolations from neonatal mouse or rat pups were modified from previously described methods (Mohler e.g., 2007). To generate the primary cardiomyocyte cultures, hearts were dissected from P1 animals and placed in 1 mL of Ham's F-10. Atrial tissue was removed and the ventricular chambers were rinsed to remove any remaining blood. Hearts were transferred into 1.5 mL of 0.05% Trypsin, 200 μM EDTA in Ham's F-10 medium (Mediatech). Hearts were minced into approximately 20 small pieces using forceps and small scissors and incubated in the Trypsin/EDTA medium at 37° C. Following 15 min, the heart pieces were mixed by a Pasteur pipette and incubated for an additional 15 min. A mixture of 200 μL of soybean trypsin inhibitor (2 mg/mL; Worthington) and 200 μL of collagenase (0.2 mg/mL; 1980 units/mg; Sigma) was incubated with the cells for 35-50 min at 37° C. The cell suspension was pelleted, resuspended in “Complete Medium” (40% DMEM, 40% Ham's F-10, 20% FCS), and plated on plastic dishes. Following five hours, the non-adhered cells (cardiomyocytes) were aspirated from the plate, pelleted, resuspended in Complete Medium, and plated on Mattek tissue culture plates (fibronectin-coated; Roche). Cardiomyocytes were washed with Ham's F-10 and Medium was replaced with “Defined Medium” to prevent the growth of fibroblasts. 100× Defined Medium consists of 100 μg/mL insulin, 500 μg/mL transferrin, 100 nM LiCl, 100 nM NaSeO4, and 10 nM thyroxine. To ensure that pure populations of cardiomyocytes were obtained, cultures were immunolabeled with alpha-actinin Ig (cardiomyocyte-specific marker). Only cultures with >90% cardiomyocytes were used in experiments. (See FIG. 12.) Lentiviral treatments (shRNA, rescue constructs) and apoptosis inducing agents (Iso, AngII) were used for 24 hours. Cells were fixed in 4% paraformaldehyde, permeabilized in 0.1% Triton X-100 and sodium citrate, and stained using In Situ cell death detection kits, TMR Red (Roche). TUNEL stain assays were interpreted as previously described (Yang e.g., 2006). Nuclei were co-stained with DAPI. Investigators were blinded to the genetic identity and treatment of the mice in all studies.
The CaMKIIδ-specific shRNA target sequence was selected based on the algorithm of Chalk, Wahlestedt, and Sonnhammer and others (Hammond e.g., 2000; Bernstein e.g., 2001; Brummelkamp e.g., 2002). […] Sense and anti-sense sequences were created and ligated into a modified pFIV lentiviral vector (SBI). For rescue experiments, full-length rat CaMKIIδ was cloned into pCDH1-MCS1-EF1-copOFP (SBI) and completely sequenced. The resulting construct was then modified to be shRNA resistant by engineering conserved residue wobble base changes at four positions in the template (CTG[A]-GCT[C]-ACG[A]-AGA[G] (SEQ ID NO:7))→LATR to LATR. […]

CaMKIIδ [5] = molecular target: T3, CaMKIIδ (Mus musculus, UniProt Q6PHZ2, M281V); assay type: biochemical; details: single point mutation, H2O2
T3 construct: CaMKIIδ (GenBank #NP_001020609) was generated using the Bac-to-Bac baculovirus system; made in house; host or cells: Bac-to-Bac baculovirus system (Invitrogen)
Experimental: as §1, §2, §3

CaMKIIα = CaMKIIα (Homo sapiens, UniProt Q9UQM7)
Experimental: as §1
These mutants were exposed to H2O2 and assayed for activity in the presence of EGTA (FIG. 1C). […] While the paired methionine motif is conserved in the β, γ, and δ isoforms of CaMKII, the neuronal α isoform substitutes a cysteine residue for the first methionine of the pair (position 280 in CaMKIIα). The side chain of cysteine is also susceptible to oxidation. A M281C mutant of CaMKIIδ was generated to mimic the substitution in CaMKIIα. Additionally, CaMKIIα was generated and purified. […] To further elucidate the role of M281 and M282 in ROS-dependent activation, these sites were individually mutated.

cardiomyocytes = assay: Isolated cardiomyocyte TUNEL staining; assay type: cell-based, mouse
Experimental: as §4
Cardiomyocytes from mice that express an inhibitory peptide against CaMKII (AC3-I, Zhang e.g., 2005) were treated with 100 nM AngII for 24 hours in parallel with isolated cardiomyocytes from WT and p47^−/− mice. […] Activity assays for caspase-3, a downstream target enzyme in the CaMKII apoptotic signaling pathway in heart, recapitulated the results from the TUNEL assay (FIG. 7A).

Ca^2+/CaM/CaMKII complex = Ca^2+/CaM/CaMKII complex (Mus musculus, UniProt Q6PHZ2); assay type: binding
Experimental: Spectra were collected at 30° C. using a Fluorolog 3 (Jobin Yvon, Horiba) spectrofluorometer. For intrinsic fluorescence shift experiments, excitation wavelength was 270 nm. Emission spectra were generated at Iran increments from 280 nm to 400 nm. Background traces were subtracted from CaMKII spectra to eliminate the contribution from intrinsic fluorescence of CaM. For fluorescence anisotropy experiments, baseline traces of 100 nM dansylated CaM in 15 mM HEPES buffer, pH 7.2 were measured at baseline and after the addition of 200 μM CaCl2 at 60 s. At 180 s, 100 nM purified CaMKII was added to the CaM solution. For some trials, CaMKII became phosphorylated by the addition of 10 mM ATP. 100 μM H2O2 or an equivalent volume of buffer was added at 250 s. Finally, addition of 10 mM EGTA at 300 s was used to remove free calcium from the solution, uncoupling CaM/CaMKII binding.

oxCaMKII = assay: Western blot of blood samples for oxidized CaMKII; assay type: in vivo, mice; details: mice with cancer, N=1 per group
Description: In order to test whether the anti-oxCaMKII antiserum was suitable for detecting increased CaMKII oxidation in blood under disease conditions associated with enhanced oxidative stress, validated mouse models were utilized. […] (See FIG. 15). Western blot of blood samples and ImageJ analysis were used to quantify total and oxidized CaMKII. (See FIG. 15). […] Mice were exposed to cancer cells and treated with either saline or 2DG. Those mice that tailed to develop tumors after 60 days were labeled as controls. (See FIG. 16). Western blot of blood samples and ImageJ analysis were used to quantify total and oxidized CaMKII. (See FIG. 16). […] (See FIG. 16). Mice were divided into four groups based on the presence or absence of cancer and whether or not they received treatment. Western blot of blood samples and ImageJ analysis were used to quantify total and oxidized CaMKII. (See FIG. 18). Both cancer and varied treatments increase blood oxCaMKII in an additive manner.

T2 sequence (Q6PHZ2 2-499): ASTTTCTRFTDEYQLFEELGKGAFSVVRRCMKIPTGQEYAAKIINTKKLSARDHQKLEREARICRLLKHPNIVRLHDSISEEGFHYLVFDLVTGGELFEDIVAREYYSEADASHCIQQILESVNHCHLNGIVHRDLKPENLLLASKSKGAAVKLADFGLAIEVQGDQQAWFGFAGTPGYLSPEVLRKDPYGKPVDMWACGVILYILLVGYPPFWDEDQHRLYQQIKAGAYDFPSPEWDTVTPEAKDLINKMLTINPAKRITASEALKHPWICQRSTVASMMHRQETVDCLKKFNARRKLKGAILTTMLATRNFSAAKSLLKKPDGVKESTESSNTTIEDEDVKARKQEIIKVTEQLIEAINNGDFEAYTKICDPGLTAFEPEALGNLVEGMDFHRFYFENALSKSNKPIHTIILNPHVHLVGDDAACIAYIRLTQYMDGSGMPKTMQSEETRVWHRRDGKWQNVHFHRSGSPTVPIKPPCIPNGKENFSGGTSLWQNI
CaMKIIα, sequence (Q9UQM7 whole entry): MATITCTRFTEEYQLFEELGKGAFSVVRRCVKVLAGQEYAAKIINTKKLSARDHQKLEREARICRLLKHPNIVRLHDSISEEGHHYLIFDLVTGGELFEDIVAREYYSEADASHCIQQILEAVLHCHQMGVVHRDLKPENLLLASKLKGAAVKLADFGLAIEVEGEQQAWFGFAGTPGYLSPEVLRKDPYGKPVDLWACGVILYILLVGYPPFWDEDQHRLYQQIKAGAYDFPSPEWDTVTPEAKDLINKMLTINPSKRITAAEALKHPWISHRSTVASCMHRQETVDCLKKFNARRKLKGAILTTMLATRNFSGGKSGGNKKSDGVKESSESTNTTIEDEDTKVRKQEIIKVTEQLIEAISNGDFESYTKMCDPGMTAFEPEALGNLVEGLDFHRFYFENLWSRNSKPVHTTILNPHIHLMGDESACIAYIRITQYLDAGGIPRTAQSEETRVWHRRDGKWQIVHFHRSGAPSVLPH
T3 sequence (Q6PHZ2 2-499 M281V): as the sequence (Q6PHZ2 2-499) above, with M280V counted along it
T1 sequence (Q6PHZ2 2-499 T287A): as the sequence (Q6PHZ2 2-499) above, with T286A counted along it

T287A: CaMKII bearing a T287A substitution
Autophosphorylation (ATP)-dependent Ca2+-independent activity (CaMKIIδ [1]): did not maintain persistent Ca^2+-independent activity
Ca2+/CaM-dependent activation (CaMKIIδ [2]): normal Ca^2+/CaM-dependent activation
H2O2 (oxidation/ROS)-dependent activation of CaMKII mutant (CaMKIIδ [2]): activated by H2O2

O=C(O)CI [iodoacetic acid]
H2O2 activity responses of cysteine protected CaMKIIδ (CaMKIIδ [3]; pretreated with 10 mM iodoacetic acid, vs CaMKIIδ without): equivalent H2O2 activity responses
Accessibility of cysteine residues to biochemical modification (CaMKIIδ [4]): blocked the accessibility of cysteine residues

C290V: CaMKII mutant of the regulatory domain cysteine
Ca2+/CaM-dependent activation (CaMKIIδ [2]): indistinguishable from WT CaMKII
H2O2 (oxidation/ROS)-dependent activation of CaMKII mutant (CaMKIIδ [2]): indistinguishable from WT CaMKII

M281/282V
H2O2 (oxidation/ROS)-dependent activation of CaMKII mutant (CaMKIIδ [2]): completely abolished
Rescue of apoptotic response to Iso (rat CaMKIIδ): rescued the apoptotic response to Iso
Rescue of apoptotic response to AngII (rat CaMKIIδ): failed to rescue the apoptotic response to AngII

M281V: CaMKII single point mutant M281V
Reduction of oxidation-dependent activation (CaMKIIδ [5]): 65%

WT CaMKII: shRNA-resistant wild type rat CaMKIIδ rescue construct expressed by lentivirus
Rescue of apoptotic response to Iso (rat CaMKIIδ): fully rescued
Rescue of apoptotic response to AngII (rat CaMKIIδ): fully rescued

M281C: M281C mutant of CaMKIIδ generated to mimic the substitution in CaMKIIα
H2O2 (oxidation/ROS)-dependent activation of CaMKII mutant (CaMKIIδ [2]): activated by H2O2

OO [H2O2, hydrogen peroxide]
Dose dependence of activation of wild type CaMKII by H2O2 (CaMKIIδ [3]; WT CaMKII): close-dependent
CaMKII activation by H2O2 (CaMKIIδ [3]; after pretreatment with Ca2+/CaM, in the presence of EGTA): persistent CaMKII activation
CaMKII activity after exposure to H2O2 (CaMKIIδ [3]; purified CaMKII, absence of any pre-treatment): no discernable CaMKII activity
Activation of purified CaMKIIα by H2O2 (CaMKIIα): activated
Apoptotic effect (cardiomyocytes; AC3-I cells compared to WT or p47−/− cells): blunted by more than half
Apoptosis (cardiomyocytes; p47−/− cells): caused significant apoptosis
CaM trapping (Ca^2+/CaM/CaMKII complex; CaMKII exposure to H2O2 for 10 min): failed to induce CaM trapping
Dissociation kinetics of Ca2+/CaM from autophosphorylated CaMKII (Ca^2+/CaM/CaMKII complex; pretreatment with H2O2 prior to EGTA): no significant effect

O=CC[C@@H](O)[C@H](O)[C@H](O)CO [2-deoxyglucose]
Oxidized CaMKII in blood (oxCaMKII): markedly increased oxidized CaMKII

M282V: CaMKII single point mutant M282V
H2O2 (oxidation/ROS)-dependent activation of CaMKII mutant (CaMKIIδ [2]): completely ablated
